Literature values as cited in patent US20180055935A1, “METHOD FOR THE PRODUCTION OF A FORMULATION OF A HYPERICIN SALT” (Sanochemia Pharmazeutika AG, priority 2015, published 2018).

Tested on: bladder carcinoma
Conditions: hypericin 30 μM using polyethylene glycol, 595 nm, 25 up to 50 mW/cm^2

Question: For `Cc1cc(O)c2c(=O)c3c(O)cc(O)c4c5c(O)cc(O)c6c(=O)c7c(O)cc(C)c8c1c2c(c34)c(c78)c65` [hypericin, 1,3,4,6,8,13-hexahydroxy-10, 11-dimethylphenanthro (1,10,9,8-opqra)perylene-7, 14-dione], which tumor cells killed is on record?
Answer: The tumor cells killed was “up to 98%”.
